Reference: patent USRE48461E1, “Modulation of androgen receptor expression” (Ionis Pharmaceuticals, Inc., priority 2012, dated 2021)
Oligonucleotides are written 5' to 3', each unit as a sugar letter and its base; * is a phosphorothioate linkage, no mark a phosphodiester; rarer units and linkages stand in square brackets, end groups in braces. Plain capitals give the bases only. e = 2'-O-(2-methoxyethyl) (MOE); k = constrained ethyl (cEt); [5mC] = 5-methylcytosine; d = 2'-deoxy (DNA)

Columns and labels:
total AR mRNA = assay: Total (full-length) AR mRNA in C4-2B MR cells, free uptake; type: cell-based, human; settings: free uptake, 24 hrs
Method: Cells were plated at a density of 40,000 cells per well in 96-well plates and cultured in RPMI1640 medium with 10% fetal bovine serum. […] ISIS 549372, ISIS 549458, ISIS 549434, and ISIS 554221 were each added at 0.04 μM, 0.20 μM, 1.00 μM, and 5.00 μM concentrations of antisense oligonucleotide to culture media for free uptake by the cells. […] After a treatment period of 24 hrs, total AR mRNA levels were measured by quantitative real-time PCR using primer probe set RTS3559.

C4-2B MR cells = assay: Proliferation of MDV3100-resistant C4-2B cells (CellTiter 96); type: cell-based, human; settings: 6 days
Method: ISIS 549372, ISIS 549434, ISIS 549458, and ISIS 554221 were each added to the culture media at 0.04 μM, 0.20 μM, 1.00 μM, and 5.00 μM concentration of antisense oligonucleotide. ISIS 347526 was included as a negative control. After a treatment period of 6 days, the proliferative capacity of the cancer cells was measured with using CellTiter 96® AQueous One Solution Cell Proliferation kit (Promega), following the manufacturer's instructions. Results are presented in Table 41 as percent inhibition of proliferation, relative to non-treated cells.

KLK2 mRNA = KLK2 mRNA (AR target gene) in C4-2B MR cells; type: cell-based, human
KLK3 mRNA = KLK3 mRNA (AR target gene) in C4-2B MR cells; type: cell-based, human
AR mRNA [1] = assay: Dose-dependent antisense inhibition of human AR in HuVEC cells (electroporation, qRT-PCR RTS3559, IC50); type: cell-based; settings: HuVEC, ~16 h, Table 4
Summary of the method: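 HuVEC cells dosed with antisense oligonucleotides by electroporation and treated approximately 16 hours. AR mRNA quantified by real-time qPCR with primer probe set RTS3559 and normalised to total RNA by RIBOGREEN; IC50 from dose-response.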

AR mRNA [2] = assay: Antisense inhibition of human AR in HuVEC cells, single concentration (electroporation, qRT-PCR RTS3559); type: cell-based; settings: 500 nM ASO, electroporation, ~24 h, Table 2
Summary of the method: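 AR mRNA levels were measured with human primer-probe set RTS3559 and adjusted for total RNA (RIBOGREEN). Cells were HuVEC, with each antisense oligonucleotide delivered by electroporation at one concentration.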

“347526 (TCTTATGTTTCCGAACCGTT; sugars from the 5' end e5 d10 e5, backbone and methylation of C not given here) [compound 347526]” was tested, and the “Percent inhibition of full-length AR mRNA in C4-2B MR cells” value (total AR mRNA; 0.04 μM) was 28%, the “Percent inhibition of full-length AR mRNA in C4-2B MR cells” value (total AR mRNA; 0.20 μM) was 35% and the “Percent inhibition of full-length AR mRNA in C4-2B MR cells” value (total AR mRNA; 1.00 μM) was 31%. The “Percent inhibition of full-length AR mRNA in C4-2B MR cells” value (total AR mRNA; 5.00 μM) was 17%, the “Percent inhibition of C4-2B MR cell proliferation” value (C4-2B MR cells; 0.04 μM) was 11% and the “Percent inhibition of C4-2B MR cell proliferation” value (C4-2B MR cells; 0.20 μM) was 22%. For the same substance, the “Percent inhibition of C4-2B MR cell proliferation” value (C4-2B MR cells; 1.00 μM) was 7%, the “Percent inhibition of C4-2B MR cell proliferation” value (C4-2B MR cells; 5.00 μM) was 16% and the “Percent inhibition of KLK2 mRNA in C4-2B MR cells” value (“Percent inhibition of KLK2 mRNA” for short) (KLK2 mRNA; 0.04 μM) was 28%. For the same substance, the “Percent inhibition of KLK2 mRNA” value (KLK2 mRNA; 0.20 μM) was 29%, the “Percent inhibition of KLK2 mRNA” value (KLK2 mRNA; 1.00 μM) was 23% and the “Percent inhibition of KLK2 mRNA” value (KLK2 mRNA; 5.00 μM) was 22%. The “Percent inhibition of KLK3 mRNA in C4-2B MR cells” value (“Percent inhibition of KLK3 mRNA” for short) (KLK3 mRNA; 0.04 μM) was 5%, the “Percent inhibition of KLK3 mRNA” value (KLK3 mRNA; 0.20 μM) was 38% and the “Percent inhibition of KLK3 mRNA” value (KLK3 mRNA; 1.00 μM) was 42%. The “Percent inhibition of KLK3 mRNA” value (KLK3 mRNA; 5.00 μM) was 16%.
With “549434 (k[5mC]*kT*kA*dA*dA*d[5mC]*dT*dT*d[5mC]*d[5mC]*d[5mC]*dG*dT*kG*kG*k[5mC]) [compound 549434]” the “Percent inhibition of full-length AR mRNA in C4-2B MR cells” value (total AR mRNA; 0.04 μM) was 9%, the “Percent inhibition of full-length AR mRNA in C4-2B MR cells” value (total AR mRNA; 0.20 μM) was 36% and the “Percent inhibition of full-length AR mRNA in C4-2B MR cells” value (total AR mRNA; 1.00 μM) was 66%. For the same substance, the “Percent inhibition of full-length AR mRNA in C4-2B MR cells” value (total AR mRNA; 5.00 μM) was 88%, the “Percent inhibition of C4-2B MR cell proliferation” value (C4-2B MR cells; 0.04 μM) was 0% and the “Percent inhibition of C4-2B MR cell proliferation” value (C4-2B MR cells; 0.20 μM) was 0%. For the same substance, the “Percent inhibition of C4-2B MR cell proliferation” value (C4-2B MR cells; 1.00 μM) was 21%, the “Percent inhibition of C4-2B MR cell proliferation” value (C4-2B MR cells; 5.00 μM) was 22% and the “Percent inhibition of KLK2 mRNA” value (KLK2 mRNA; 0.04 μM) was 5%. For the same substance, the “Percent inhibition of KLK2 mRNA” value (KLK2 mRNA; 0.20 μM) was 27%, the “Percent inhibition of KLK2 mRNA” value (KLK2 mRNA; 1.00 μM) was 49% and the “Percent inhibition of KLK2 mRNA” value (KLK2 mRNA; 5.00 μM) was 68%. The “Percent inhibition of KLK3 mRNA” value (KLK3 mRNA; 0.04 μM) was 10%, the “Percent inhibition of KLK3 mRNA” value (KLK3 mRNA; 0.20 μM) was 47% and the “Percent inhibition of KLK3 mRNA” value (KLK3 mRNA; 1.00 μM) was 42%. The “Percent inhibition of KLK3 mRNA” value (KLK3 mRNA; 5.00 μM) was 64%, the “percent inhibition of AR” value (AR mRNA [1]; 55.6 nM) was 38% and the “percent inhibition of AR” value (AR mRNA [1]; 166.7 nM) was 60%. The “percent inhibition of AR” value (AR mRNA [1]; 500.0 nM) was 86%, the “percent inhibition of AR” value (AR mRNA [1]; 1500.0 nM) was 96% and the IC50 (AR mRNA [1]) was 85 nM. The “% inhibition” value (AR mRNA [2]) was 96%.
